Experimental data reported in EP1362858A1, “Pyrrolopyrimidinone derivates, process of preparation and use” (SK Chemicals Co., Ltd., priority 2002, dated 2003).
Where two headings read alike, the source gives them in different places.

Target: rabbit platelet PDE V (Oryctolagus cuniculus, UniProt G1SX67)
Assay: PDE V inhibition, PDE SPA assay kit with [3H]-cGMP
Assay type: biochemical
Method: The rabbit platelet PDE V was prepared using the method described by Hidaka et al. (Biochim. Biophys. Acta., 429: 485 - 497, 1976) with minor modification. The plateletrich plasma (PRP) was prepared by centrifugation of freshly obtained heparinized whole blood at 360 g. Platelets were isolated from the PRP by centrifugation at 1,200 g. Platelet homogenates were prepared in the homogenization buffer (50 mM Tris-HCl buffer containing 1 mM MgCl2, pH 7.4) by sonication for 30 s per 1 mL. The homogenized solutions were then centrifuged at 40,000 × g for 2 h at 4 °C. The supernatant was loaded on the DEAE-cellulose column (20 mL bed volume, Sigma) pre-equilibrated with equilibration buffer (50 mM Tris-acetate containing 3.75 mM 2-mercaptoethanol, pH 6.0). The column was then washed with 60 mL of equilibration buffer. The PDE isozymes were eluted using a continuous gradient of 0 to 600 mM sodium acetate in the equilibration buffer (60 mL total volume). The 1.0 mL fractions were collected. A flow rate of 60 mL/h was used throughout the ion-exchange chromatography procedure. PDE activities on cAMP and cGMP were characterized as described below. The characterized fractions were pooled and stored at -80 °C until the inhibition studies.
The cyclic nucleotide PDE V activity was determined using PDE SPA assay kit (Amersham Pharmacia biotech, UK). Each reaction mixture (100 µL total volume) consisted of the column elute containing PDE V (10 µL), [^3H]-cGMP (5 µCi/mL), bovine serum albumin (0. 5 mg/mL), and MgCl2 (5 mM) in Tris-HCl buffer (15 mM, pH 7. 5). The reactions were initiated by the addition of PDE V and the samples were incubated at 30 °C for 30 min, after which the reaction was stopped by the addition of 50 µL of SPA beads. The reaction tube was then settled for 20 min and was counted on the scintillation counter (Tri-carb 1500, Packard, USA). For the inhibition study of PDE V activity, the test compounds were dissolved in dimethyl sulfoxide (DMSO) and was diluted with distilled water. The final concentration of DMSO was less than 0. 2% (v/v).

[1] = in vitro inhibition of cGMP PDE V, 30 °C, 30 min, read-out: IC50

## CCCOc1ccc(S(=O)(=O)N2CCN(CCOC(C)=O)CC2)cc1-c1nc2c(CCC)cn(CC)c2c(=O)[nH]1 [Example 7, 2-{5-[4-(2-Acetoxyethyl)piperazin-1-ylsulfonyl]-2-n-propoxyphenyl}-5-ethyl-7-n-propyl-3,5-dihydro-4H-pyrrolo[3,2-d]pyrimidin-4-one]
[1]
  IC50: 2.84 nM

## CCCOc1ccc(S(=O)(=O)N2CCN(CCOC(=O)CC)CC2)cc1-c1nc2c(CCC)cn(CC)c2c(=O)[nH]1 [Example 10, 5-Ethyl-2-{5-[4-(2-propionyloxyethyl)piperazin-1-ylsulfonyl]-2-n-propoxyphenyl}-7-n-propyl-3,5-dihydro-4H-pyrrolo[3,2-d]pyrimidin-4-one]
[1]
  IC50: 5.73 nM

## CCCOc1ccc(S(=O)(=O)N2CCN(CCOC(=O)CCC)CC2)cc1-c1nc2c(CCC)cn(CC)c2c(=O)[nH]1 [Example 12, 2-{5-[4-(2-Butyryloxyethyl)piperazin-1-ylsulfonyl]-2-n-propoxyphenyl}-5-ethyl-7-n-propyl-3,5-dihydro-4H-pyrrolo[3,2-d]pyrimidin-4-one]
[1]
  IC50: 8.87 nM

## CCCOc1ccc(S(=O)(=O)N2CCN(CCOC(=O)C(C)C)CC2)cc1-c1nc2c(CCC)cn(CC)c2c(=O)[nH]1 [Example 14, 5-Ethyl-2-{5-[4-(2-isobutyryloxyethyl)piperazin-1-ylsulfonyl]-2-n-propoxyphenyl}-7-n-propyl-3,5-dihydro-4H-pyrrolo[3,2-d]pyrimidin-4-one]
[1]
  IC50: 8.8 nM

## CCCOc1ccc(S(=O)(=O)N2CCN(CCOC(=O)OCC)CC2)cc1-c1nc2c(CCC)cn(CC)c2c(=O)[nH]1 [Example 17, 2-{5-[4-(2-Ethoxycarbonyloxyethyl)piperazin-1-ylsulfonyl]-2-n-propoxyphenyl}-5-ethyl-7-n-propyl-3,5-dihydro-4H-pyrrolo[3,2-d]pyrimidin-4-one]
[1]
  IC50: 7.65 nM

## CCCOc1ccc(S(=O)(=O)N2CCN(CCOC(=O)c3ccccc3)CC2)cc1-c1nc2c(CCC)cn(CC)c2c(=O)[nH]1 [Example 16, 2-{5-[4-(2-Benzoyloxyethyl)piperazin-1-ylsulfonyl]-2-n-propoxyphenyl}-5-ethyl-7-n-propyl-3,5-dihydro-4H-pyrrolo[3,2-d]pyrimidin-4-one]
[1]
  IC50: 14.4 nM

## CCCOc1ccc(S(=O)(=O)N2CCN(CCOC(=O)Cc3ccccc3)CC2)cc1-c1nc2c(CCC)cn(CC)c2c(=O)[nH]1 [Example 24, 5-Ethyl-2-{5-[4-(2-phenylacetoxyethyl)piperazin-1-ylsulfonyl]-2-n-propoxyphenyl}-7-n-propyl-3,5-dihydro-4H-pyrrolo[3,2-d]pyrimidin-4-one]
  IC50: 8.68 nM

## CCCOc1ccc(S(=O)(=O)N2CCN(CCOC(C)=O)CC2)cc1-c1nc2c(CCCF)cn(CC)c2c(=O)[nH]1 [Example 19, 2-{5-[4-(2-Acetoxyethyl)piperazin-1-ylsulfonyl]-2-n-propoxyphenyl}-5-ethyl-7-(3-fluoropropyl)-3,5-dihydro-4H-pyrrolo[3,2-d]pyrimidin-4-one]
[1]
  IC50: 1.48 nM
